Results reported in the supplement of paper PMC4932681.

Legend:
Assay in all cases: viability inhibition at highest dose (% inhibition); higher = more growth inhibition
BT-474 Tam1 = settings: 4-OH-tamoxifen in medium 1 µM; 72 h
Procedure: (§1)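 Percent inhibition of viability (CellTiter-Glo, 72 h) at the highest tested concentration (D5), normalised to DMSO (0%) and 100 µM benzethonium chloride (100%). Resistant lines and the 'in 1µM tamoxifen' arms were tested in 1 µM 4-OH-tamoxifen.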

BT-474 Tam2 = settings: 4-OH-tamoxifen in medium 1 µM; 72 h
Procedure: as §1

BT-474 = settings: 72 h
Procedure: as §1

MCF-7 Tam1 = settings: 4-OH-tamoxifen in medium 1 µM; 72 h
Procedure: as §1

MCF-7 = settings: 72 h
Procedure: as §1

T-47D Tam1 = settings: 4-OH-tamoxifen in medium 1 µM; 72 h
Procedure: as §1

T-47D Tam2 = settings: 4-OH-tamoxifen in medium 1 µM; 72 h
Procedure: as §1

T-47D = settings: 72 h
Procedure: as §1

ZR-75-1 Tam1 = settings: 4-OH-tamoxifen in medium 1 µM; 72 h
Procedure: as §1

ZR-75-1 Tam2 = settings: 4-OH-tamoxifen in medium 1 µM; 72 h
Procedure: as §1

ZR-75-1 = settings: 72 h
Procedure: as §1

Row | Compound | viability inhibition at highest dose (BT-474 Tam1) | viability inhibition at highest dose (BT-474 Tam2) | viability inhibition at highest dose (BT-474; 4-OH-tamoxifen in medium 0 µM) | viability inhibition at highest dose (BT-474; 4-OH-tamoxifen in medium 1 µM) | viability inhibition at highest dose (MCF-7 Tam1) | viability inhibition at highest dose (MCF-7; 4-OH-tamoxifen in medium 0 µM) | viability inhibition at highest dose (MCF-7; 4-OH-tamoxifen in medium 1 µM) | viability inhibition at highest dose (T-47D Tam1) | viability inhibition at highest dose (T-47D Tam2) | viability inhibition at highest dose (T-47D; 4-OH-tamoxifen in medium 0 µM) | viability inhibition at highest dose (T-47D; 4-OH-tamoxifen in medium 1 µM) | viability inhibition at highest dose (ZR-75-1 Tam1) | viability inhibition at highest dose (ZR-75-1 Tam2) | viability inhibition at highest dose (ZR-75-1; 4-OH-tamoxifen in medium 0 µM) | viability inhibition at highest dose (ZR-75-1; 4-OH-tamoxifen in medium 1 µM)
1 | CO[C@H]1/C=C\C=C(/C)C(=O)NC2=CC(=O)C(NCCN(C)C)=C(C[C@@H](C)C[C@H](OC)[C@H](O)[C@@H](C)/C=C(\C)[C@@H]1OC(N)=O)C2=O [Alvespimycin (17-DMAG)] (drug 1000 nM) | 78.3 | 68.2 | 49 | 76.7 | 30.2 | 65 | 47.8 | 35 | 49.2 | 49.9 | 37.1 | 32.9 | 44.1 | 32.7 | 47
2 | CN1CC[C@H](c2c(O)cc(O)c3c(=O)cc(-c4ccccc4Cl)oc23)[C@H](O)C1 [Alvocidib (Flavopiridol)] (drug 10000 nM) | 96.8 | 89.5 | 9.07 | 46.1 | 30.1 | 62.9 | 65 | 57.8 | 38.7 | 29.3 | -0.409 | 49.9 | 55.9 | 50.1 | 46.6
3 | NCCCNCCSP(=O)(O)O [Amifostine] (drug 10000 nM) | -0.954 | -1.33 | -2.99 | 1.56 | -11.7 | -14.2 | -5.03 | -2.35 | 7 | -8.52 | -1.52 | 1.78 | -10.8 | -8.06 | -7.66
4 | CCC1(c2ccc(N)cc2)CCC(=O)NC1=O (stereo not given) [Aminoglutethimide] (drug 10000 nM) | 12.8 | -1.52 | -3.67 | 20 | 6.51 | -3.88 | 8.64 | 4.05 | 4.12 | -3.76 | 5.9 | 9.59 | 8.94 | 6.41 | 10.3
5 | NCC(=O)CCC(=O)O [Aminolevulinic acid] (drug 10000 nM) | 4.33 | -2.75 | -15.6 | -12.3 | -9.27 | -30.6 | 7.57 | -0.747 | 5.5 | -13.1 | -10.6 | -7.01 | -5.25 | -15.3 | -7.45
6 | CN(C)CCN1C(=O)c2cccc3cc(N)cc(c23)C1=O [Amonafide] (drug 10000 nM) | -18.4 | -15.7 | -11.5 | -35.2 | 7.15 | 51.1 | 20.4 | 5.27 | 11.3 | 23.6 | -12 | 12.9 | 23.1 | 35.4 | 17.1
7 | O=C1CN2Cc3c(ccc(Cl)c3Cl)N=C2N1 [Anagrelide] (drug 10000 nM) | 2.18 | 3.44 | -9.3 | -22.2 | -9.28 | -21.2 | 2.74 | 8.7 | -2.05 | -25.6 | -12.9 | 0.528 | -5.88 | -12.6 | -4.05
8 | CC(C)(C#N)c1cc(Cn2cncn2)cc(C(C)(C)C#N)c1 [Anastrozole] (drug 10000 nM) | -0.566 | -3.02 | -8.01 | -8.68 | -5.71 | -4.15 | -2.23 | -5.37 | 2.94 | -9.21 | -3.66 | -5.43 | -10.2 | -9.38 | -3.76
9 | CC(C)c1c(C(=O)Nc2ccccc2)c(-c2ccccc2)c(-c2ccc(F)cc2)n1CC[C@@H](O)C[C@@H](O)CC(=O)O [Atorvastatin] (drug 10000 nM) | 12.4 | 28.2 | 13.8 | 7.75 | 13.7 | 23.9 | 19.8 | 29.2 | 18.7 | 35.6 | 36.5 | 44.5 | 39.9 | 48.4 | 36.5
10 | CC(=O)OC[C@H]1O[C@@H]([S-])[C@H](OC(C)=O)[C@@H](OC(C)=O)[C@@H]1OC(C)=O.CCP(CC)CC.[Au+] [Auranofin] (drug 2500 nM) | 96 | 66.5 | 58 | 97.5 | 22.4 | 91.7 | 33.9 | 54.3 | 59.3 | 31 | 36 | 20.7 | 12.5 | 15.9 | 25.5
11 | CNC(=O)c1ccccc1Sc1ccc2c(/C=C/c3ccccn3)n[nH]c2c1 [Axitinib] (drug 10000 nM) | 41.2 | 23.2 | 22 | 41.5 | 25 | 33 | 33.2 | 24.7 | 27.1 | 38.7 | 20.7 | 9.18 | 22.8 | 3.79 | 19.2
12 | Nc1ncn([C@@H]2O[C@H](CO)[C@@H](O)[C@H]2O)c(=O)n1 [Azacitidine] (drug 10000 nM) | 1.3 | 17.2 | 11.1 | 12.4 | 1.85 | 31.9 | -0.966 | 23.6 | 21 | 16.3 | -5.14 | 11.9 | 7.49 | 11.2 | 0.709
13 | CC[C@@H]1C(=O)N(C)c2cnc(Nc3ccc(C(=O)NC4CCN(C)CC4)cc3OC)nc2N1C1CCCC1 [BI 2536] (drug 1000 nM) | 27.9 | 11.8 | 26 | 48.3 | 7.18 | 39 | 29.9 | 30.3 | 34 | 29.2 | 19.9 | 26.8 | 21.6 | 12.7 | 26.7
14 | COc1c(C)cnc(Cn2cnc3c(Cl)nc(N)nc32)c1C [BIIB021] (drug 10000 nM) | 72.2 | 70.9 | 48.2 | 70.8 | 26.1 | 56.8 | 45.6 | 46 | 50 | 65.4 | 51.5 | 36.3 | 39.3 | 32.2 | 34.3
